Measurements: US5612208A, “Ascorbate oxidase, gene encoding the same, process for producing the same, and reagent composition using the same” (Amano Pharmaceutical Co., Ltd., priority 1994, dated 1997)
Like-named read-outs stand apart in the source and are kept apart here.

Tests used:
[1] = tested on: L-ascorbate oxidase (ASOD) of Eupenicillium brefeldianum APC-9315, purified native enzyme; format: biochemical
Procedure: The relative residual activity of ASOD after incubation with various inhibitors at 37° C. for 2 hours.
(§1) To 0.1 ml of a sample to be assayed is added 0.5 ml of 10 mM Na2 HPO4 and 0.45 ml of 0.2M KH2 PO4 containing 1 mM EDTA, and the mixture is mixed and preincubated at 30° C. for 5 minutes. To the mixture is added 0.05 ml of a 10 mM substrate solution of L-ascorbic acid in 0,001N HCl containing 1 mM EDTA, followed by incubation at 30° C. for 10 minutes. The reaction is stopped by addition of 3.0 ml of 0.2N HCl, and a reduction in absorbance at 245 nm is measured. The amount of ASOD in the sample which decomposes 1 μmol of L-ascorbic acid per 1 minute is taken as one unit.

[2] = tested on: L-ascorbate oxidase (ASOD) of Eupenicillium brefeldianum APC-9315, purified native enzyme; assay: Michaelis constant (Km) for L-ascorbic acid, spectrophotometry method; format: biochemical; conditions: by the spectrophotometry method
Procedure: (8) Michaelis Constant (Km) for L-Ascorbic Acid
4.9×10^-4 M (by the spectrophotometry method)
as §1

[3] = tested on: ascorbate oxidase (ASO) from spores of Myrothecium verrucaria; conditions: data from Nihon Eiyo-Shokuryo Gakkaishi, 40, (1), 47-51 (1987); read-out: Km (L-Ascorbate); cited from earlier work
[4] = tested on: ascorbate oxidase of microorganism of the genus Trichoderma or Mortierella (JP-A-6-209770); conditions: data from JP-A-6-209770; read-out: Km (L-Ascorbate); cited from earlier work
[5] = tested on: ascorbate oxidase of microorganism of the genus Trichoderma or Mortierella (JP-A-6-209770); conditions: data from JP-A-6-209770; cited from earlier work
[6] = target: T1, ascorbate oxidase (ASO) of cucumber (Cucumis sativus, UniProt P14133); conditions: data from J. Biochem., 64 189 (1968); cited from earlier work
T1 construct: cucumbers (T. Nakamura, N. Makino and Y. Ogura, J. Biochem., Vol. 64, p. 189 (1968)); host or cells: enzyme isolated from cucumbers
T1 sequence (P14133 34-587): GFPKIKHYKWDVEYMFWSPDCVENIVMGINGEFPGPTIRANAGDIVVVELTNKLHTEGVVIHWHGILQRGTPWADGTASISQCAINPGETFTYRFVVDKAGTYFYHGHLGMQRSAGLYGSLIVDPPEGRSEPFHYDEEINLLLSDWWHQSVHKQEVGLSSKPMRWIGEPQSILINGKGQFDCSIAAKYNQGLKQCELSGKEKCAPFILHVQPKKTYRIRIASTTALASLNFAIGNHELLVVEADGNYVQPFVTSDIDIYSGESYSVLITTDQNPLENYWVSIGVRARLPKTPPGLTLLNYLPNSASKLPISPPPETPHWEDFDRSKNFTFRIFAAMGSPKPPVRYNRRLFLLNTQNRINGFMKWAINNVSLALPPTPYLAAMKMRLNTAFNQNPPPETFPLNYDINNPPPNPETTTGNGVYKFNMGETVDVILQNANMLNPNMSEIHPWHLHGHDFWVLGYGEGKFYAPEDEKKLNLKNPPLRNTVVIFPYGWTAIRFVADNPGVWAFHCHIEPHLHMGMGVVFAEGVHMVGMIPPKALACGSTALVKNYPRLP

[7] = tested on: ascorbate oxidase (ASO) of Acremonium sp. HI-25; conditions: data from Biosci. Biotechnol. Biochem., 56 (6), 847-852 (1992) & JP-A-3-236766; cited from earlier work
[8] = tested on: ascorbate oxidase (ASO) from spores of Myrothecium verrucaria; conditions: data from Nihon Eiyo-Shokuryo Gakkaishi, 40, (1), 47-51 (1987); cited from earlier work
[9] = incubation with inhibitor at 37° C. for 2 hours, inhibitor concentration not printed

O[C@H](CS)[C@H](O)CS (racemic) [dithiothreitol]
Inhibition by inhibitor (relative residual activity), in words [1, 9]: not substantially inhibited

O=C1O[C@H]([C@@H](O)CO)C(O)=C1O [L-Ascorbic Acid, L-ascorbic acid]
Km [2]: 490 µM | Km [3]: 3000 µM | Km [4]: 700 µM

O=C(O)CI [monoiodoacetic acid]
Inhibition by inhibitor [1]: 50% | Inhibition by inhibitor (relative residual activity), in words [1]: inhibited partially | Inhibition by inhibitor, in words [5]: uninhibited

[N-]=[N+]=[N-] [sodium azide]
Inhibition by inhibitor, in words [6]: inhibited | Inhibition by inhibitor, in words [7]: inhibited | Inhibition by inhibitor, in words [8]: uninhibited | Inhibition by inhibitor (relative residual activity), in words [1, 9]: not substantially inhibited | Inhibition by inhibitor (relative residual activity), in words ([1]; incubation with inhibitor at 37° C. for 2 hours, inhibitor concentration not printed, listed as Sodium Azide): uninhibited
